Measured values taken from PubChem BioAssay AID256 (DTP/NCI, 2004).
Where “and” joins values, the source holds several entries; their conditions need not be identical. Equal entries are not always repeated. Toxic doses and inconclusive results are not listed. How the source made its calls: active means survival T/C of 150% or more; inactive means T/C below 125% in these data.

Tested on: CD2F1 mice, L1210 leukemia ip, survival T/C
Assay: NCI In Vivo Anticancer Drug Screen. Data for tumor model L1210 Leukemia (intraperitoneal) in CD2F1 (CDF1) mice
Details: higher = longer survival
Summary of the method: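 Ratio T/C, where T is the treated-group value and C the vehicle-dosed control value, from mice implanted with a transplantable tumor.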

[1] = endpoint: mean survival time, dose: 100.0 mg/kg/injection, schedule: Q04DX003 (ip), vehicle: saline with Tween-80
[2] = endpoint: mean survival time, dose: 200.0 mg/kg/injection, schedule: Q04DX003 (ip), vehicle: saline with Tween-80
[3] = endpoint: mean survival time, dose: 400.0 mg/kg/injection, schedule: Q04DX003 (ip), vehicle: saline with Tween-80
[4] = endpoint: mean survival time, dose: 100.0 mg/kg/injection, schedule: Q01DX009 (ip), vehicle: saline with Tween-80
[5] = endpoint: mean survival time, dose: 100.0 mg/kg/injection, schedule: Q01DX001 (ip), vehicle: saline with Tween-80
[6] = endpoint: mean survival time, dose: 200.0 mg/kg/injection, schedule: Q01DX001 (ip), vehicle: saline with Tween-80
[7] = endpoint: mean survival time, dose: 400.0 mg/kg/injection, schedule: Q01DX001 (ip), vehicle: saline with Tween-80

Measured: T/C

CC(C)(C)NO
inactive: endpoint: mean survival time, dose: 100.0 mg/kg/injection, schedule: Q01DX001 (ip), vehicle: Klucel (hydroxypropylcellulose) (HPC) 100 % of control | endpoint: mean survival time, dose: 200.0 mg/kg/injection, schedule: Q01DX001 (ip), vehicle: Klucel (hydroxypropylcellulose) (HPC) 96 % of control | endpoint: mean survival time, dose: 400.0 mg/kg/injection, schedule: Q01DX001 (ip), vehicle: Klucel (hydroxypropylcellulose) (HPC) 100 % of control

Cc1cc(C)cc(OC(=O)/C=C/C(=O)Oc2cc(C)cc(C)c2)c1
inactive: [1] 100 % of control | [2] 95 % of control | [3] 96 % of control

[Br][Pt+2][Br].[NH-]c1ccc(F)cc1.[NH-]c1ccc(F)cc1
inactive: endpoint: mean survival time, dose: 3.13 mg/kg/injection, schedule: Q04DX003 (ip), vehicle: distilled water + Tween-80 101 % of control | endpoint: mean survival time, dose: 6.25 mg/kg/injection, schedule: Q04DX003 (ip), vehicle: distilled water + Tween-80 104 % of control | endpoint: mean survival time, dose: 12.5 mg/kg/injection, schedule: Q04DX003 (ip), vehicle: distilled water + Tween-80 104 % of control | endpoint: mean survival time, dose: 25.0 mg/kg/injection, schedule: Q04DX003 (ip), vehicle: distilled water + Tween-80 108 % of control | endpoint: mean survival time, dose: 50.0 mg/kg/injection, schedule: Q04DX003 (ip), vehicle: distilled water + Tween-80 110 % of control | endpoint: mean survival time, dose: 100.0 mg/kg/injection, schedule: Q04DX003 (ip), vehicle: distilled water + Tween-80 113 % of control

CCCN(CCC)S(=O)(=O)c1ccc(NC(=O)OC2CCCC2)cc1
inactive: endpoint: mean survival time, dose: 100.0 mg/kg/injection, schedule: Q01DX001 (ip), vehicle: saline 104 % of control | endpoint: mean survival time, dose: 200.0 mg/kg/injection, schedule: Q01DX001 (ip), vehicle: saline 106 % of control | endpoint: mean survival time, dose: 400.0 mg/kg/injection, schedule: Q01DX001 (ip), vehicle: saline 105 % of control

CN1CC(CO)C(O)C2c3cccc4[nH]cc(c34)CC21 (stereo not drawn)
inactive: endpoint: median survival time, dose: 25.0 mg/kg/injection, schedule: Q04DX003 (ip), vehicle: saline with Tween-80 100 % of control | endpoint: median survival time, dose: 50.0 mg/kg/injection, schedule: Q04DX003 (ip), vehicle: saline with Tween-80 100 % of control | endpoint: median survival time, dose: 100.0 mg/kg/injection, schedule: Q04DX003 (ip), vehicle: saline with Tween-80 100 % of control | endpoint: median survival time, dose: 200.0 mg/kg/injection, schedule: Q04DX003 (ip), vehicle: saline with Tween-80 100 % of control

COC(=O)Nc1ccccc1OS(=O)(=O)N(C)C
inactive: endpoint: mean survival time, dose: 25.0 mg/kg/injection, schedule: Q01DX009 (ip), vehicle: saline with Tween-80 95 % of control | endpoint: mean survival time, dose: 50.0 mg/kg/injection, schedule: Q01DX009 (ip), vehicle: saline with Tween-80 104 % of control | [4] 96 % of control and 103 % of control

C=CC(=O)NC12CC3CC(CC(C3)C1)C2
inactive: endpoint: mean survival time, dose: 100.0 mg/kg/injection, schedule: Q04DX003 (ip), vehicle: saline 100 % of control | endpoint: mean survival time, dose: 200.0 mg/kg/injection, schedule: Q04DX003 (ip), vehicle: saline 101 % of control | endpoint: mean survival time, dose: 400.0 mg/kg/injection, schedule: Q04DX003 (ip), vehicle: saline 101 % of control

Cc1ccc(NC(=O)C(Cl)(Cl)Cl)cc1[N+](=O)[O-]
inactive: [1] 102 % of control | [2] 96 % of control | [3] 98 % of control

CCOC(=O)C(=CCBr)C(=O)OCC
inactive: endpoint: mean survival time, dose: 1.56 mg/kg/injection, schedule: Q01DX009 (ip), vehicle: other 100 % of control | endpoint: mean survival time, dose: 3.13 mg/kg/injection, schedule: Q01DX009 (ip), vehicle: other 100 % of control | endpoint: mean survival time, dose: 6.25 mg/kg/injection, schedule: Q01DX009 (ip), vehicle: other 107 % of control | endpoint: mean survival time, dose: 12.5 mg/kg/injection, schedule: Q01DX009 (ip), vehicle: other 100 % of control | endpoint: mean survival time, dose: 25.0 mg/kg/injection, schedule: Q01DX009 (ip), vehicle: other 102 % of control

N#CC(C#N)C(O)c1c[nH]c2ccccc12 (stereo not drawn)
inactive: [5] 102 % of control | [6] 96 % of control | [7] 94 % of control

CC(=O)Nc1ccccc1[N+](=O)[O-]
inactive: [5] 103 % of control | [6] 101 % of control | [7] 103 % of control

O=C1/C(=C/c2ccc(Cl)cc2Cl)CCC/C1=C\c1ccc(Cl)cc1Cl
inactive: [4] 87 % of control

CCCCCCCCCCCCCCCCNCC(O)CN (stereo not drawn)
inactive: endpoint: mean survival time, dose: 12.5 mg/kg/injection, schedule: Q04DX002 (ip), vehicle: saline 95 % of control | endpoint: mean survival time, dose: 25.0 mg/kg/injection, schedule: Q04DX002 (ip), vehicle: saline 106 % of control | endpoint: mean survival time, dose: 50.0 mg/kg/injection, schedule: Q04DX002 (ip), vehicle: saline 103 % of control
